Measurements taken from patent US20120190690A1, “E[…] THE TREATMENT OF WEIGHT DISORDERS” (MERZ PHARMA GmbH & CO. KGaA, priority 2009, published 2012).
“Also recorded” adds a separate entry of the source.

Columns and labels:
[1] = tested on: 5-HT2c (initially designated 5-HT1c); settings: Schipper et al. 1990; cited from earlier work
[2] = Plasma levels in the rat weight study; format: in vivo; settings: N=8
Method: (§1) Eltoprazine hydrochloride was dissolved in sterile water. Animals were treated for 2 weeks using Alzet osmotic pumps (2ML2) implanted under the skin on the back delivering constantly eltoprazine solution or using b.i.d. s.c. Treatment. During the treatment, the rats were kept in single cages.
(§2) Group 1: vehicle (osmotic pump; saline) Group 2: eltoprazine 8 mg/kg/day (osmotic pump; in distilled water) Group 3: vehicle (2 daily injections—9 am & 3 pm—s.c.; in distilled water) Group 4: eltoprazine 1 mg/kg (2 daily injections—9 am & 3 pm—s.c.; in distilled water)

Sprague-Dawley rats = experiment: Effect of eltoprazine on weight gain and food intake of rats; format: in vivo, rat; settings: vs vehicle
Method: Experimentally naive adult male Sprague-Dawley rats (250-300 g; Janvier, France) were housed in groups of four per cage. Colony room temperature and humidity were maintained respectively at 20±1° C. and 60±3%. Food and water were available ad libitum and the animals were kept under an alternating 12 h/12 h day-night cycle (lights on at 07.00) for at least 6 days before the experiments were started. All experiments were conducted during the light period of the day-night cycle.
as §1, §2
Groups 3 and 4 were NOT injected at the weekend, and the weight and food intake were not recorded at the weekend.
Weight of animals and food intake were measured daily for two weeks (with exception of weekends).

5-HT1b receptor = settings: Schipper et al. 1990; cited from earlier work
[3] = molecular target: T1, human serotonin 5-HT1a receptor (Homo sapiens, UniProt P08908); experiment: GTPγS assay, recombinant CHO-K1 membranes, agonist testing; format: biochemical; settings: human recombinant cell line; FIG. 1
T1 construct: expressed in transfected cells; host or cells: CHO-K1
T1 sequence (P08908 1-422): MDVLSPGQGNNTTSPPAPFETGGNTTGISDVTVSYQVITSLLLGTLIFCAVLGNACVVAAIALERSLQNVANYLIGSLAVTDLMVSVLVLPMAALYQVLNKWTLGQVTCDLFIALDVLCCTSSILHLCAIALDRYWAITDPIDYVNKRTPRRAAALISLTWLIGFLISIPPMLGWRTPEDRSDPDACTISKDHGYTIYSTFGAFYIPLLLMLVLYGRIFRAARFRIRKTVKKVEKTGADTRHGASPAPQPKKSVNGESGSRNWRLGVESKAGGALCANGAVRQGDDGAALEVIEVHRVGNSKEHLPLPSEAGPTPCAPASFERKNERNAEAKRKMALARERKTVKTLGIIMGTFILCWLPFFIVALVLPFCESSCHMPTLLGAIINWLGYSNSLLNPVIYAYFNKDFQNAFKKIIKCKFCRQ
Method: (§3) Eltoprazine was tested for activity on the human serotonin 5-HT1a and 5-HT1b receptors using a GTPγS assay. Recombinant membranes obtained from CHO-K1 cells expressing either the 5-HT1a or 5-HT1b receptors were mixed with GDP (volume:volume) and incubated for at least 15 min on ice. In parallel, GTPγ[35S] was mixed with the beads (volume:volume) just before starting the reaction. The following reagents were successively added in the wells of an Optiplate (Perkin Elmer): 50 μl of test compound, 20 μl of the membranes:GDP mix, 10 μl of assay buffer (for agonist testing) and 20 μl of the GTPγ[35S]:beads mix. The plates were covered with a top seal, shaken on an orbital shaker for 2 min, and then incubated for 1 h at room temperature. Then the plates were centrifuged for 10 min at 2000 rpm, incubated at room temperature 1 h and counted for 1 min/well with a PerkinElmer TopCount reader.

[4] = molecular target: T2, human serotonin 5-HT1b receptor (Homo sapiens, UniProt P28222); experiment: as above; format: biochemical; settings: human recombinant cell line; FIG. 1
T2 construct: expressed in transfected cells; host or cells: CHO-K1
T2 sequence (P28222 whole entry): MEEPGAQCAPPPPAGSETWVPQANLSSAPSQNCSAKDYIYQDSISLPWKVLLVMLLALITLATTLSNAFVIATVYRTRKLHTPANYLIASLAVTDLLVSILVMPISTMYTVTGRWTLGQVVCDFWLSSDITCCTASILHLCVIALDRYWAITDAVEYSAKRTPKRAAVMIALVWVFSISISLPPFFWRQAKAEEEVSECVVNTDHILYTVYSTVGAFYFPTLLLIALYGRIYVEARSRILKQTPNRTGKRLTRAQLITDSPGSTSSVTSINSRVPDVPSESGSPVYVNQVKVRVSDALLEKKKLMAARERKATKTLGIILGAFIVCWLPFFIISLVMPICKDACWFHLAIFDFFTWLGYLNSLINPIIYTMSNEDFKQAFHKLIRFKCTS
Method: as §3

[5] = molecular target: T3, 5-HT2c non-edited (ne) recombinant receptor (Homo sapiens, UniProt P28335); experiment: Aequorin cell line functional assay, agonist testing; format: cell-based; settings: FIG. 1
T3 construct: expressed in transfected cells
T3 sequence (P28335 33-458): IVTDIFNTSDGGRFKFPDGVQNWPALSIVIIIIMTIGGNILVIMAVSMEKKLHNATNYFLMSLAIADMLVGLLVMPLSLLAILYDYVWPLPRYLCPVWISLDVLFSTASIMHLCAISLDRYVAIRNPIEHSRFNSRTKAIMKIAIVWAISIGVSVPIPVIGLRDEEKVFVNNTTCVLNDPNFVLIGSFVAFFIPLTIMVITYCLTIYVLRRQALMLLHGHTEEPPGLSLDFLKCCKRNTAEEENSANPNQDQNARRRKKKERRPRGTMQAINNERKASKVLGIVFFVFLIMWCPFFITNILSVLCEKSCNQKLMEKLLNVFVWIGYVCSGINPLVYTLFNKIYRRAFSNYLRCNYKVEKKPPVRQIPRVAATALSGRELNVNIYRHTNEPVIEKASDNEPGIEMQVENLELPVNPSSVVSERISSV
Method: (§4) Aequorin cell lines expressing the 5-HT2a, 5-HT2b and 5-HT2c non-edited (ne) recombinant receptors were used to evaluate the functional activity of eltoprazine. Aequorin cells grown 18 h prior to the test in media without antibiotics were detached by gentle flushing with PBS-EDTA (5 mM EDTA), recovered by centrifugation and resuspended in “assay buffer” (DMEM/HAM's F12 with HEPES+0.1% BSA protease free). Cells were incubated at room temperature for at least 4 h with Coelenterazine h (Molecular Probes). The reference agonist used were 5-HT and α-methyl-5-HT. For agonist testing, 50 μl of cell suspension were injected on 50 μl of test compound or reference agonist plated in a 96-well plate. The resulting emission of light was recorded using the Hamamatsu Functional Drug Screening System 6000 (FDSS 6000).

[6] = molecular target: T4, 5-HT2a recombinant receptor (Homo sapiens, UniProt P28223); experiment: as above; format: cell-based; settings: FIG. 1
T4 construct: expressed in transfected cells
T4 sequence (P28223 whole entry): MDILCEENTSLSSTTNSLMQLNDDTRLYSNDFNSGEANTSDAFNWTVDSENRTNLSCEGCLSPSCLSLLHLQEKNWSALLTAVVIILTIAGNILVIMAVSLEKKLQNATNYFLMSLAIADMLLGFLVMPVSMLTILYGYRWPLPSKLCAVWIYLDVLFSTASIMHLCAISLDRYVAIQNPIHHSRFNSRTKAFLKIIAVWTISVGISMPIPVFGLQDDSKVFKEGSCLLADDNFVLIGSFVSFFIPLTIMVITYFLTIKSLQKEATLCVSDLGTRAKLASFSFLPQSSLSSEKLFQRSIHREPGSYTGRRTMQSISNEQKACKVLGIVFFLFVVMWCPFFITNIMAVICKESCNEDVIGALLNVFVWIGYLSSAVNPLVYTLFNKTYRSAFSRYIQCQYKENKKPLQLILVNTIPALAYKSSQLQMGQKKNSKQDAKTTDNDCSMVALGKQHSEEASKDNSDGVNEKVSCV
Method: as §4

5-HT1a receptor = settings: Schipper et al. 1990; cited from earlier work
patients = settings: clinical trials in aggressive behaviour (de Koning et al. 1994); cited from earlier work
[7] = tested on: 6-OHDA-lesioned rat model of Parkinson's disease; experiment: L-DOPA induced dyskinesia (AIM scores) in unilaterally 6-OHDA-lesioned rats; format: in vivo; settings: eltoprazine hydrochloride 0.08, 0.3, 1.25 and 5 mg/kg s.c. 30 min before test; after 21 days L-DOPA 6 mg/kg + benserazide 15 mg/kg i.p.; FIG. 2
Method: (§5) Male Sprague Dawley rats (Elevage Janvier, Le Genest Saint Isle, France) weighing between 220 and 250 g at the beginning of the study are used in these experiments. They are housed under a 12 h light/dark cycle with free access to standard pelleted food and tap water. Animal treatment and experimental procedures are approved by local ethical committees (Regierungspräsidium Darmstadt; Germany).
(§6) Dopamine-denervating lesions are performed on rats anaesthetized with a 5:1 mixture of ketamine and xylazine (1 ml/kg, i.p.). […] The animals' turning behaviour is recorded in an automated rotometer (TSE Rotameter System, TSE-Systems GmbH, Bad Homburg, Germany) over a 90 min period after the intraperitoneal (i.p.) injection of 2.5 mg/kg dexamphetamine sulphate dissolved in saline. […]
In order to evaluate the severity of LID, AIMs are recorded every second day as described by Cenci et al. (1998). […] Each rat is scored on a severity scale from 0 to 4 based on its frequency and persistence (1=occasional; 2=frequent; 3=continuous but interrupted by sensory distraction; 4=continuous, severe and not interrupted by sensory distraction). […]

[8] = tested on: 6-OHDA-lesioned rat model of Parkinson's disease; experiment: Turning behaviour induced by high dose of L-DOPA in 6-OHDA-lesioned rats; format: in vivo; settings: eltoprazine 0.3, 1.25 and 5 mg/kg 30 min before test; 180 min rotometer; FIG. 3
Method: as §5, §6
In order to evaluate the effect of eltoprazine on parkinsonian symptoms and its interaction with L-DOPA, rotational behaviour is evaluated. The numbers of ipsilateral and contralateral turns are recorded in an automated rotometer (TSE Rotameter System, TSE-Systems GmbH, Bad Homburg, Germany) over a period of 180 min. […]

## c1cc2c(c(N3CCNCC3)c1)OCCO2 [eltoprazine, 1-(2,3-dihydro-1,4-benzodioxin-8-yl)piperazine]
[1]
  effect on 5-HT2c: antagonistic
[2]; 1 mg/kg s.c. b.i.d. injections
  plasma levels: approx. 55 ng/ml
  plasma levels (range): 48 to 65 ng/mL
[2]; osmotic minipump 8 mg/kg/day
  plasma levels: approx. 110 ng/ml
  plasma levels (range): 86 to 143 ng/mL
Sprague-Dawley rats; 1 mg/kg s.c. b.i.d. injections, 2 weeks (not at weekends), FIG. 5A
  weight gain: delay in weight gain; also recorded: significant effect of treatment
Sprague-Dawley rats; 1 mg/kg s.c. b.i.d. injections, 2 weeks (not at weekends), FIG. 5B
  food intake: reduced food intake; also recorded: significant effect of treatment
Sprague-Dawley rats; osmotic minipump 8 mg/kg/day, 2 weeks, FIG. 4A
  weight gain: delay in weight gain; also recorded: significant effect of treatment
Sprague-Dawley rats; osmotic minipump 8 mg/kg/day, 2 weeks, FIG. 4B
  food intake: reduced food intake; also recorded: significant effect of treatment
5-HT1b receptor
  pharmacological action on 5-HT1b receptor: agonistic effect
[3]
  functional activity at 5-HT1a receptor: partial agonistic action
[4]
  functional activity at 5-HT1b receptor: partial agonistic action
[5]
  functional activity at 5-HT2c receptor: full agonist
[6]
  functional activity at 5-HT2a receptor: full agonist
5-HT1a receptor
  pharmacological action on 5-HT1a receptor: agonistic effect
patients
  clinical safety: clinically safe
[7]
  effect on AIM scores: significantly reverses, in a dose-dependent manner
[8]
  effect on turning behaviour induced by L-DOPA (antiparkinsonian effect of L-DOPA): does not interfere with the antiparkinsonian effect of L-DOPA
